Assay [1] addresses T1, BACE1 (Homo sapiens (Human), UniProt P56817). Briefly: In vitro enzymatic BACE1 FRET assay. The class given is biochemical. Particulars: read-out: BACE1 Enzyme IC50.
Target sequence in this assay (P56817 46-501): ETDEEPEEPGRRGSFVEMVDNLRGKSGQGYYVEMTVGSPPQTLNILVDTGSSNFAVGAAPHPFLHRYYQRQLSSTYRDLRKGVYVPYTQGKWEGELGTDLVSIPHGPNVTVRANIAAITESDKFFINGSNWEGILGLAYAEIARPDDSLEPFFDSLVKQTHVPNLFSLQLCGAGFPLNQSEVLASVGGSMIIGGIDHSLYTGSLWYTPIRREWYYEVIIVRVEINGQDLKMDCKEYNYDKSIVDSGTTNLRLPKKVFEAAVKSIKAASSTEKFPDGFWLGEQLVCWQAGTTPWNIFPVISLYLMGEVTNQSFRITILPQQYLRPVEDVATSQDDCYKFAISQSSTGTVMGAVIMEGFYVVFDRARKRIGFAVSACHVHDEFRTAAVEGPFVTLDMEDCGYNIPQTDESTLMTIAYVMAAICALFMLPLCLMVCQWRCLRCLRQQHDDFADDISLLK
Assay [2] concerns the target T1, BACE1. Briefly: In vitro BACE1 cell-based assay (Aβ40 in conditioned medium of cells stably expressing APP, HTRF). Conditions: Aβ40 in conditioned media after 24 h incubation. On the technique in general: In TR-FRET formats the signal depends on donor and acceptor labels being close together.
Target sequence in this assay (P56817 46-501, species assumed): as the sequence (P56817 46-501) above
Another assay addresses Cathepsin D (CatD) (Homo sapiens (Human), UniProt P07339). Description: In vitro enzymatic Cathepsin D (CatD) FRET assay. The class given is biochemical. Particulars: read-out: Cat D Enzyme IC50.
The next assay concerns the target human recombinant BACE2 (Homo sapiens (Human), UniProt Q9Y5Z0). Description: In vitro enzymatic BACE2 FRET assay. Particulars: read-out: BACE2 Enzyme IC50. The class given is biochemical.

A value given as a limit tells only on which side of the number the result lay.

Broadly, the IC50 is the point on the concentration scale where inhibition reaches its midpoint.

Cathepsin D (CatD), sequence (P07339 65-412, species assumed): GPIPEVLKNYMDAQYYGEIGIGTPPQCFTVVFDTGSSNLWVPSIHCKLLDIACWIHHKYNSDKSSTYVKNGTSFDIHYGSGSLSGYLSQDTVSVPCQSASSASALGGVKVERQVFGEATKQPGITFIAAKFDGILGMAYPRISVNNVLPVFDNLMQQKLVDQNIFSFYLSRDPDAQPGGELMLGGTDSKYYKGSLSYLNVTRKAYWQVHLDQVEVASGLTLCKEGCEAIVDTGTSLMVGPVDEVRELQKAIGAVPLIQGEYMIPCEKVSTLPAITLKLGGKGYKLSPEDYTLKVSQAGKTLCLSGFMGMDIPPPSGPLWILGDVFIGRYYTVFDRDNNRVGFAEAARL
human recombinant BACE2, sequence (Q9Y5Z0 63-518): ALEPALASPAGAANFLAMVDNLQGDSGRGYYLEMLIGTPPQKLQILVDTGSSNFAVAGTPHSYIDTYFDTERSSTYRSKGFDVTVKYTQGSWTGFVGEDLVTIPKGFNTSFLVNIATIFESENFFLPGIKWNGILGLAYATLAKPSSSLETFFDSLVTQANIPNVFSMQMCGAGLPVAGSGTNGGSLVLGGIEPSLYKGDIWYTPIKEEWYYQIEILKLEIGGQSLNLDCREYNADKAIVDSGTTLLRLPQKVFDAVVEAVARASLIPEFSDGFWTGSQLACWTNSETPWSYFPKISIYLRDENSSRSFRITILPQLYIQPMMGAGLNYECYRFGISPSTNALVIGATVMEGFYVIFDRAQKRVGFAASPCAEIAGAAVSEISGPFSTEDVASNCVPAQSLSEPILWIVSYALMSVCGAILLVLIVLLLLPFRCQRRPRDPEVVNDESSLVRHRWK

Turning to `CC1(C)C(N)=N[C@](C)(c2cc(/C=C(\F)c3cnc(OCc4ccccc4)cn3)cnc2F)CS1(=O)=O` [Example 209, (R,Z)-5-amino-3-(5-(2-(5-(benzyloxy)pyrazin-2-yl)-2-fluorovinyl)-2-fluoropyridin-3-yl)-3,6,6-trimethyl-3,6-dihydro-2H-1,4-thiazine 1,1-dioxide], the 50% inhibitory concentration (IC50) on BACE1 [1] was found to be 124 nM; against BACE1 [2], 2520 nM; at Cathepsin D (CatD) it was 46500 nM; at human recombinant BACE2, 311 nM.

For the molecule `CC1(C)C(N)=N[C@](C)(c2cc(/C=C(\F)c3cnc(OCc4ccncc4)cn3)ccc2F)CS1(=O)=O` [Example 210, (R,Z)-5-amino-3-(2-fluoro-5-(2-fluoro-2-(5-(pyridin-4-ylmethoxy)pyrazin-2-yl)vinyl)phenyl)-3,6,6-trimethyl-3,6-dihydro-2H-1,4-thiazine 1,1-dioxide], the IC50 on BACE1 [1] was determined as 1720 nM; against BACE1 [2], 2230 nM; on Cathepsin D (CatD) it was 467000 nM; at human recombinant BACE2, 476 nM.

For the molecule `CC1(C)C(N)=N[C@](C)(c2cc(/C=C(\F)c3cnc(Oc4ccccc4)cn3)ccc2F)CS1(=O)=O` [Example 211, (R,Z)-5-amino-3-(2-fluoro-5-(2-fluoro-2-(5-phenoxypyrazin-2-yl)vinyl)phenyl)-3,6,6-trimethyl-3,6-dihydro-2H-1,4-thiazine 1,1-dioxide], the IC50 at BACE1 [1] is 349 nM; against BACE1 [2] it was 1820 nM; at Cathepsin D (CatD), 59500 nM; at human recombinant BACE2, 333 nM.

Regarding `C[C@@H](CO)Oc1cnc(/C(F)=C/c2ccc(F)c([C@]3(C)CS(=O)(=O)C(C)(C)C(N)=N3)c2)cn1` [Example 218, (R)-5-amino-3-(2-fluoro-5-((Z)-2-fluoro-2-(5-(((S)-1-hydroxypropan-2-yl)oxy)pyrazin-2-yl)vinyl)phenyl)-3,6,6-trimethyl-3,6-dihydro-2H-1,4-thiazine 1,1-dioxide], the IC50 at BACE1 [1] was determined as 180 nM; on BACE1 [2], 529 nM; at Cathepsin D (CatD) it was 195000 nM; at human recombinant BACE2, 285 nM.

For `C[C@H](O)COc1cnc(/C(F)=C/c2ccc(F)c([C@]3(C)CS(=O)(=O)C(C)(C)C(N)=N3)c2)cn1` [Example 219, (R)-5-amino-3-(2-fluoro-5-((Z)-2-fluoro-2-(5-((S)-2-hydroxypropoxy)pyrazin-2-yl)vinyl)phenyl)-3,6,6-trimethyl-3,6-dihydro-2H-1,4-thiazine 1,1-dioxide], the IC50 on BACE1 [1] was 136 nM; on BACE1 [2], 142 nM; at Cathepsin D (CatD), 208000 nM; at human recombinant BACE2 it was 377 nM.

As for `CN1C(N)=N[C@](C)(c2cc(/C=C(\F)c3cc(F)c(C#N)cn3)ccc2F)CS1(=O)=O` [Example 226, 6-((Z)-2-(3-((5R)-3-amino-2,5-dimethyl-1,1-dioxido-5,6-dihydro-2H-1,2,4-thiadiazin-5-yl)-4-fluorophenyl)-1-fluoroethenyl)-4-fluoro-3-pyridinecarbonitrile], the IC50 on BACE1 [1] was determined as 7 nM; against BACE1 [2], 341 nM; on Cathepsin D (CatD), 47000 nM; on human recombinant BACE2, 14 nM.

In the case of `COc1cc(/C(F)=C/c2ccc(F)c([C@]3(C)CS(=O)(=O)N(C)C(N)=N3)c2)ncc1Cl` [Example 230, (R,Z)-3-amino-5-(5-(2-(5-chloro-4-methoxypyridin-2-yl)-2-fluorovinyl)-2-fluorophenyl)-2,5-dimethyl-5,6-dihydro-2H-1,2,4-thiadiazine 1,1-dioxide], the IC50 was 179 nM at BACE1 [1], 656 nM on BACE1 [2], 111000 nM at Cathepsin D (CatD) and 24 nM at human recombinant BACE2.

For `CN1C(N)=N[C@](C)(c2cc(/C=C(\F)c3cc(C#N)c(Cl)cn3)ccc2F)CS1(=O)=O` [Example 231, (R,Z)-2-(2-(3-(3-amino-2,5-dimethyl-1,1-dioxido-5,6-dihydro-2H-1,2,4-thiadiazin-5-yl)-4-fluorophenyl)-1-fluorovinyl)-5-chloroisonicotinonitrile], the IC50 was 84 nM at BACE1 [1], 97 nM against BACE1 [2], over 4940 nM on Cathepsin D (CatD) and 94 nM on human recombinant BACE2.

Take `CN1C(N)=N[C@](C)(c2cc(/C=C(\F)c3cc(F)c(Cl)cn3)ccc2F)CS1(=O)=O` [Example 232, (R,Z)-3-amino-5-(5-(2-(5-chloro-4-fluoropyridin-2-yl)-2-fluorovinyl)-2-fluorophenyl)-2,5-dimethyl-5,6-dihydro-2H-1,2,4-thiadiazine 1,1-dioxide]: the IC50 at BACE1 [1] came out at 7 nM; against BACE1 [2], 29 nM; on Cathepsin D (CatD) it was 68800 nM; at human recombinant BACE2, 2 nM.

As to `CN1C(N)=N[C@](C)(c2cc(/C=C(\F)c3ncc4c(n3)OCCO4)ccc2F)CS1(=O)=O` [Example 234, (R,Z)-3-Amino-5-(5-(2-(6,7-dihydro-[1,4]dioxino[2,3-d]pyrimidin-2-yl)-2-fluorovinyl)-2-fluorophenyl)-2,5-dimethyl-5,6-dihydro-2H-1,2,4-thiadiazine 1,1-dioxide], the IC50 at BACE1 [1] was found to be 392 nM; against BACE1 [2], 99 nM; at Cathepsin D (CatD), 107000 nM; on human recombinant BACE2, 554 nM.

Turning to `C[C@@H]1COc2nc(/C(F)=C/c3ccc(F)c([C@]4(C)CS(=O)(=O)N(C)C(N)=N4)c3)ncc2O1` [Example 235, (R)-3-amino-5-(2-fluoro-5-((Z)-2-fluoro-2-((R)-6-methyl-6,7-dihydro-[1,4]dioxino[2,3-d]pyrimidin-2-yl)vinyl)phenyl)-2,5-dimethyl-5,6-dihydro-2H-1,2,4-thiadiazine 1,1-dioxide], the IC50 on BACE1 [1] is 268 nM; at BACE1 [2] it was 128 nM; on Cathepsin D (CatD) it was 160000 nM; on human recombinant BACE2, 533 nM.

For the molecule `C[C@H]1COc2cnc(/C(F)=C/c3ccc(F)c([C@]4(C)CS(=O)(=O)N(C)C(N)=N4)c3)nc2O1` [Example 236, (R)-3-amino-5-(2-fluoro-5-((Z)-2-fluoro-2-((S)-7-methyl-6,7-dihydro-[1,4]dioxino[2,3-d]pyrimidin-2-yl)vinyl)phenyl)-2,5-dimethyl-5,6-dihydro-2H-1,2,4-thiadiazine 1,1-dioxide], the IC50 on BACE1 [1] is 1120 nM; against BACE1 [2], 410 nM; on Cathepsin D (CatD), 55200 nM; on human recombinant BACE2, 2360 nM.

Take `CN1C(N)=N[C@](C)(c2cc(/C=C(\F)c3cc4c(cn3)OCCC4)ccc2F)CS1(=O)=O` [Example 239, (5R)-5-(5-((Z)-2-(3,4-dihydro-2H-pyrano[2,3-c]pyridin-6-yl)-2-fluoroethenyl)-2-fluorophenyl)-2,5-dimethyl-5,6-dihydro-2H-1,2,4-thiadiazin-3-amine 1,1-dioxide]: the IC50 on BACE1 [1] was 530 nM; against BACE1 [2], 1020 nM; on Cathepsin D (CatD) it was 329000 nM; at human recombinant BACE2 it was 143 nM.

Consider `CN1C(N)=N[C@](C)(c2cc(/C=C(\F)c3ccc(F)cn3)ccc2F)CS1(=O)=O` [Example 240, (5R)-5-(2-fluoro-5-((Z)-2-fluoro-2-(5-fluoro-2-pyridinyl)ethenyl)phenyl)-2,5-dimethyl-5,6-dihydro-2H-1,2,4-thiadiazin-3-amine 1,1-dioxide], for which the IC50 on BACE1 [1] is 34 nM; against BACE1 [2], 67 nM; on Cathepsin D (CatD) it was 375000 nM; at human recombinant BACE2, 8 nM.

Turning to `COc1cnc(/C(F)=C/c2ccc(F)c([C@]3(C)CS(=O)(=O)N(C)C(N)=N3)c2)cn1` [Example 241, (5R)-5-(2-fluoro-5-((Z)-2-fluoro-2-(5-methoxy-2-pyrazinyl)ethenyl)phenyl)-2,5-dimethyl-5,6-dihydro-2H-1,2,4-thiadiazin-3-amine 1,1-dioxide], the IC50 at BACE1 [1] amounted to 107 nM; at BACE1 [2], 168 nM; at Cathepsin D (CatD) it was 91300 nM; at human recombinant BACE2 it was 75 nM.

As for `CN1C(N)=N[C@](C)(c2cc(/C=C(\F)c3ncc(C(F)(F)F)cc3Cl)ccc2F)CS1(=O)=O` [Example 242, (5R)-5-(5-((Z)-2-(3-chloro-5-(trifluoromethyl)-2-pyridinyl)-2-fluoroethenyl)-2-fluorophenyl)-2,5-dimethyl-5,6-dihydro-2H-1,2,4-thiadiazin-3-amine 1,1-dioxide], the IC50 at BACE1 [1] turned out to be 5 nM; on BACE1 [2] it was 26 nM; at Cathepsin D (CatD) it was 99900 nM; at human recombinant BACE2, 10 nM.

Turning to `CN1C(N)=N[C@](C)(c2cc(/C=C(\F)c3ccc(C(F)(F)F)cn3)ccc2F)CS1(=O)=O` [Example 244, (5R)-5-(2-fluoro-5-((Z)-2-fluoro-2-(5-(trifluoromethyl)-2-pyridinyl)ethenyl)phenyl)-2,5-dimethyl-5,6-dihydro-2H-1,2,4-thiadiazin-3-amine 1,1-dioxide], the IC50 at BACE1 [1] came out at 6 nM; on BACE1 [2] it was 8 nM; on Cathepsin D (CatD), 206000 nM; at human recombinant BACE2, 31 nM.

Consider `Cc1cc(C#N)cnc1/C(F)=C/c1ccc(F)c([C@]2(C)CS(=O)(=O)N(C)C(N)=N2)c1` [Example 245, 6-((Z)-2-(3-((5R)-3-amino-2,5-dimethyl-1,1-dioxido-5,6-dihydro-2H-1,2,4-thiadiazin-5-yl)-4-fluorophenyl)-1-fluoroethenyl)-5-methyl-3-pyridinecarbonitrile], for which the IC50 stood at 5 nM at BACE1 [1], 4 nM on BACE1 [2], 137000 nM at Cathepsin D (CatD) and 21 nM on human recombinant BACE2.

On to `CN1C(N)=N[C@](C)(c2cc(/C=C(\F)c3ccc(Br)cn3)ccc2F)CS1(=O)=O` [Example 247, (R,Z)-3-amino-5-(5-(2-(5-bromopyridin-2-yl)-2-fluorovinyl)-2-fluorophenyl)-2,5-dimethyl-5,6-dihydro-2H-1,2,4-thiadiazine 1,1-dioxide], for which the half-maximal inhibitory concentration (IC50) was found to be 6 nM on BACE1 [1], 28 nM on BACE1 [2], 11000 nM on Cathepsin D (CatD) and 7 nM on human recombinant BACE2.

The record behind these values is patent US11021493B2, “1,4-thiazine dioxide and 1,2,4-thiadiazine dioxide derivatives as beta-secretase inhibitors and methods of use” (AMGEN INC., priority 2016, dated 2021).
